# Measurements taken from PubChem BioAssay (NCI).
# Several values for one entry are separate records, joined by “and”; a condition that tells them apart may be missing. Equal values may be shown once.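 Grown in 96-well plates, cells were treated for 48 hours with each compound at five concentrations. Insufficient inhibition: endpoint recorded as highest concentration tested. Abbreviation: GI50, concentration required for 50% inhibition of growth. TGI is the concentration that stops growth completely.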
# Columns and labels:
# Assay in all cases: NCI anticancer screen, dose series, 48 h
# [1] = system: A498 renal
# [2] = system: SNB-19 CNS
# [3] = system: SN12C renal
# [4] = system: SK-MEL-2 melanoma
# [5] = system: BT-549 breast
Compound,TGI [1] [µM],TGI [2] [µM],TGI [3] [µM],TGI [4] [µM],TGI [5] [µM],GI50 [1],GI50 [3],GI50 [4]
COC(=O)c1cc2c(c3c1CC(Cc1ccccc1)C3=O)CCC2 (stereo not given),> 100,> 100,> 100,,,,,
O=[N+]([O-])/C(C(Cl)=C(Cl)Cl)=C(/Cl)SCc1ccccc1,40.8,43.2,12.9,47.4,,,,
CCCCc1ccc(-n2sc3ncc(C)cc3c2=O)cc1,,> 100,47.2,> 100,40.7,,,
CC1(C)OCC([C@H]2O[C@@H](CC(=S)NCCCCCCCCCCCCNC(=S)C[C@H]3O[C@@H](C4COC(C)(C)O4)[C@H]4OC(C)(C)O[C@H]43)[C@H]3OC(C)(C)O[C@H]32)O1 (stereo not given in full),> 100,,,> 100,> 100,,,
OCCN(CCO)c1ncnc2nc[nH]c12,> 100,> 100,> 100,,> 100,,,
CC1=NN(c2nc(N)nc(/C(C#N)=C\c3csc([N+](=O)[O-])c3)n2)C(C)(C)C1,> 100,,,81,,,,
O=[N+]([O-])c1cccc2nc3ccccc3c(NCCCNc3c4ccccc4nc4cccc([N+](=O)[O-])c34)c12,,0.163,0.0976,0.13,0.441,,,
C[C@]12C[C@@H](OC(=O)[C@]1(C)O)[C@@H]([C@]1(O)CC[C@H]3[C@@H]4C[C@H]5O[C@]56C[C@H]5O[C@H]5C(=O)[C@]6(C)[C@H]4CC[C@@]31C)C2,> 50,> 50,> 50,> 50,,,,
Cc1ccc(-c2nc(N/N=C/C=C/c3ccccc3)c3ccccc3n2)cc1,,> 100,99,99.2,52.2,,,
Nc1ncnc2oc(C3OC(COC(=O)c4ccccc4)C(OC(=O)c4ccccc4)C3OC(=O)c3ccccc3)nc12 (stereo not given),82.6,> 100,> 100,,> 100,,,
C=C1CC(c2ccc(OCCCN3C(=O)c4ccccc4C3=O)cc2)OC1=O (stereo not given),3.56,25.5,12.3,4.98,,,,
CCc1c(C)c(C#N)c(=S)n(C2OC(COC(C)=O)C(OC(C)=O)C(OC(C)=O)C2OC(C)=O)c1-c1ccccc1 (stereo not given),> 31.6,,> 31.6,> 31.6,> 100,,,
CC1=NC(=Cc2ccccc2O)C(=O)N1n1c(-c2ccccc2)nc2ccccc2c1=O,> 100,> 100,> 100,,> 100,,,
CCOC(=O)C1(C(=O)OCC)[C@@H](c2ccccc2)C2=NO[C@@H]3CCC[C@H]1[C@H]23,,> 100,> 100,> 100,> 100,,,
COc1ccc2c(c1)c1c(n2CCN(C)C)-c2ccccc2CC1,,35.5,28.1,30.3,30.7,,,
CC1(c2nc3ccccc3[nH]2)CCC(C(=O)O)C(C)(C)O1 (stereo not given),,> 100,> 100,> 100,> 100,,,
CCOC(=O)CNC(=O)C(CSC(=O)N(O)c1ccc(Cl)cc1)NC(=O)CCC(N)C(=O)OCC (stereo not given),,> 50,> 50,> 50,> 50,,,
CSC(=S)Nc1cccc(C)n1,> 100,> 100,> 100,> 100,,,,
CC1=C(O)C2=C(C(=O)C1=O)[C@@H](C)CC[C@@H]2[C@@H](C)C/C=C/C(C)(C)O,> 100,> 100,> 100,> 100,,,,
O=c1[nH]c(=S)nc2nc3c4ccc[nH]c4c4ccccc4c3nc12,> 100,> 100,> 100,,> 100,,,
Cc1nc2ccc(C(F)(F)F)cc2nc1NCc1ccc(Cl)c(Cl)c1,,36.6,35.3,,39.7,,,
NC(=O)C(=CNC(=S)Nc1ccccc1)C(N)=O,> 100,> 100,> 100,> 100,,,,
N#Cc1nc(-c2ccco2)oc1N,,> 10,,,> 10,,,
O=c1[nH]nc(Cc2ccccc2)n1C1CCCC1,> 100,> 100,> 100,,,,,
Oc1[nH]c2ccccc2c1N=NC(=S)Nc1ccccc1Cl,35.4,> 100,> 100,64.8,,,,
NS(=O)(=O)c1nnc(NS(=O)(=O)C(F)(F)F)s1,> 100,> 100,,> 100,> 100,,,
COc1ccc(OC)c(N(CN2C(=O)CCC2C(=O)O)C(C)=O)c1 (stereo not given),> 100,> 100,> 100,> 100,,,,
COc1ccc(OC)c(CNc2ccc(C(=O)O)cc2)c1,> 100,> 100,,> 100,> 100,,,
O=[N+]([O-])c1ccc(OC2CC3C4C=CC3C2C4)c([N+](=O)[O-])c1 (stereo not given),> 100,> 100,> 100,> 100,,96.5 µM and > 31.6 µM,86.4 µM and > 31.6 µM,90.4 µM and > 31.6 µM
CCOC(=O)C1(F)S(=O)(=O)OCCOS1(=O)=O,,> 100,> 100,> 100,> 100,,,
